The results in this text go back to ChEMBL document CHEMBL1129675, “New directions in antibacterial research” (1996).

Molecules are shown by their SMILES. In brackets after ≈: the same amount, converted by molar mass. Activity calls are given as the source filed them. The rule behind the calls is not given here. Starred links: 1 amine or outer side, 2 acyl side, 3 side chain; linkers in the order of their positions; H or OH if unused. Positions of bridges follow the written chain, without caps; N, C: chain ends. Non-standard residues stand in square brackets, D forms with d. Residues, ends and D or L forms follow the SMILES beside them. X1 = O=C([C@@H](N[*:1])c1ccc(O[C@H]2OC(CO)[C@@H](O)[C@@H](O)[C@@H]2O[C@H]2O[C@@H](CO)[C@@H](O)[C@H](O)[C@H]2O)cc1)[*:2]; X2 = CC(C)C/C=C\C=C/C(=O)NC(CC(N)=O)C(=O)CC(C(=O)[*:1])C(O[*:2])C(N)=O; Hpg(3-Cl) = N[C@H](C(=O)O)c1ccc(O)c(Cl)c1; Hpg = N[C@H](C(=O)O)c1ccc(O)cc1; Orn = NCCC[C@H](N)C(=O)O

Usually MIC stands for the lowest concentration that inhibits growth of the organism.

Assay [1] has as its system Enterococcus faecalis. Nature of the assay: Inhibitory activity against VanA strain of E. faecalis; Range is 0.03-2 ug/mL. It is filed as functional.
For assay [2], the system named is Enterococcus faecium. Nature of the assay: Inhibitory activity against VanA strain of E. faecium; Range is 0.03-2 ug/mL. It is filed as functional.
Assay [3] concerns Staphylococcus aureus. The experiment in a line: Inhibitory activity against MRSA. It is filed as functional.
Assay [4] has as its system Streptococcus pyogenes. The experiment in a line: Inhibitory activity against Streptococcus pyogenes. It is filed as functional.
The subject of assay [5] is Streptococcus pneumoniae. The experiment in a line: Inhibitory activity against Streptococcus pneumoniae. In kind it is functional.
Assay [6] can be described thus: Inhibitory activity against VanB enterococci; Range is 0.016-1 ug/mL. It is filed as functional.
Assay [7] can be described thus: Inhibitory activity against many clinical relevent pathogen; Range is 5-50 ug/mL. In kind it is functional.
Assay [8] deals with Chlamydia. The experiment in a line: Antibacterial activity against Chlamydia; More active. In kind it is functional, organism-based.
The subject of assay [9] is Haemophilus influenzae. The experiment in a line: Antibacterial activity against Haemophilus influenzae; Active. It is filed as functional, organism-based.
Assay [10] in a line: Antibacterial activity against Legionella; More active. In kind it is functional.
Assay [11] relates to Pasteurella multocida. The experiment in a line: Antibacterial activity against Pasteurella multocida; More active. In kind it is functional, organism-based.
Assay [12] concerns Streptococcus sp. Nature of the assay: Antibacterial activity against Streptococci; More active. In kind it is functional, organism-based.
The nature of assay [13]: Antibacterial activity against […] species.; More active. In kind it is functional.
For assay [14], the system named is Pseudomonas aeruginosa. The experiment in a line: Antibacterial activity against Pseudomonas aeruginosa was determined; Active. In kind it is functional, organism-based.
Assay [15] deals with Enterococcus. Nature of the assay: Inhibitory activity against Vancomycin resistant enterococci. It is filed as functional.
Assay [16] can be described thus: Inhibitory activity against Lactobacillus species. To be noted: Bacteria. It is filed as functional.
A short description of assay [17]: Inhibitory activity against Leuconostoc species. In kind it is functional.
A short description of assay [18]: Inhibitory activity against Pediococcus species. In kind it is functional.
For assay [19], the system named is Bacteroides fragilis. Nature of the assay: Inhibitory activity against Bacteroides fragilis. In kind it is functional.
Assay [20] has as its system Bacteria. Nature of the assay: Inhibitory activity against Corynebacterium. In kind it is functional.
In assay [21] the test system is Enterococcus faecium. Nature of the assay: Inhibitory activity against Enterococcus faecium. It is filed as functional.
The subject of assay [22] is Haemophilus influenzae. The experiment in a line: Inhibitory activity against Haemophilus influenzae. It is filed as functional.
Assay [23] concerns Moraxella catarrhalis. Nature of the assay: Inhibitory activity against Moraxella catarrhalis. It is filed as functional.
The subject of assay [24] is Staphylococcus epidermidis. Nature of the assay: Inhibitory activity against methicillin-resistant Staphylococcus epidermidis (MRSE). In kind it is functional.
In assay [25] the test system is Staphylococcus epidermidis. Nature of the assay: Inhibitory activity against methicillin-sensitive Staphylococcus epidermidis (MSSE). It is filed as functional.
The subject of assay [26] is Staphylococcus aureus. The experiment in a line: Inhibitory activity against MSSA. In kind it is functional.

Regarding `CN[C@H](CC(C)C)C(=O)N[C@H]1C(=O)N[C@@H](CC(N)=O)C(=O)N[C@H]2C(=O)N[C@H]3C(=O)N[C@](C)(C(=O)N[C@H](C(=O)O)c4cc(O)cc(O)c4-c4cc3ccc4O)[C@H](C[C@H]3C[C@](C)(N)[C@@H](O)[C@H](C)O3)c3ccc(c(Cl)c3)Oc3cc2cc(c3O[C@@H]2O[C@H](CO)[C@@H](O)[C@H](O)[C@H]2O[C@@H]2C[C@](C)(NCc3ccc(Oc4ccccc4)cc3)[C@@H](O)[C@H](C)O2)Oc2ccc(cc2Cl)[C@H]1O`, the minimal inhibitory concentration (MIC) was 0.03 µg/mL (≈ 0.0168 µM) in [1]; 0.03 µg/mL (≈ 0.0168 µM) in assay [2]; no more than 0.5 µg/mL in assay [3]; less than 0.06 µg/mL in assay [4]; less than 0.008 µg/mL in assay [5]; 0.016 µg/mL (≈ 0.00895 µM) in assay [6].

`CC[C@H](C)[C@H](NC(=O)CN)C(=O)NCC(=O)N[C@@H](CCCCN)C(=O)N[C@@H](Cc1ccccc1)C(=O)N[C@@H](CC(C)C)C(=O)N[C@@H](Cc1c[nH]cn1)C(=O)N[C@@H](CO)C(=O)N[C@@H](C)C(=O)N[C@@H](CCCCN)C(=O)N[C@@H](CCCCN)C(=O)N[C@@H](Cc1ccccc1)C(=O)NCC(=O)N[C@@H](CCCCN)C(=O)N[C@@H](C)C(=O)N[C@@H](Cc1ccccc1)C(=O)N[C@H](C(=O)NCC(=O)N[C@@H](CCC(=O)O)C(=O)N[C@H](C(=O)N[C@@H](CCSC)C(=O)N[C@@H](CC(N)=O)C(=O)N[C@@H](CO)C(=O)O)[C@@H](C)CC)C(C)C` [MAGAININ 2] (H-GIGKFLHSAKKFGKAFVGEIMNS-OH): the MIC in assay [7] worked out at 5 µg/mL (≈ 2.03 µM).

As to `CC[C@H]1OC(=O)[C@H](C)[C@@H](O[C@H]2C[C@@](C)(OC)[C@@H](O)[C@H](C)O2)[C@H](C)[C@@H](O[C@@H]2O[C@H](C)C[C@H](N(C)C)[C@H]2O)[C@](C)(O)C[C@@H](C)CN(C)[C@H](C)[C@@H](O)[C@]1(C)O`, the result in assay [8], in assay [9], in assay [10], in [11], in assay [12] and in assay [13] was Active.

As for `CC[C@H](C)[C@H](NC(=O)CN)C(=O)NCC(=O)N[C@@H](CCCCN)C(=O)N[C@@H](Cc1ccccc1)C(=O)N[C@@H](CC(C)C)C(=O)N[C@@H](Cc1cnc[nH]1)C(=O)N[C@@H](CO)C(=O)N[C@@H](C)C(=O)NCC(=O)N[C@@H](CCCCN)C(=O)N[C@@H](Cc1ccccc1)C(=O)NCC(=O)N[C@@H](CCCCN)C(=O)N[C@@H](C)C(=O)N[C@@H](Cc1ccccc1)C(=O)N[C@H](C(=O)NCC(=O)N[C@@H](CCC(=O)O)C(=O)N[C@H](C(=O)N[C@@H](CCSC)C(=O)N[C@@H](CCCCN)C(=O)N[C@@H](CO)C(=O)O)[C@@H](C)CC)C(C)C` [MAGAININ I] (H-GIGKFLHSAGKFGKAFVGEIMKS-OH), the MIC in [7] stood at 5 µg/mL (≈ 2.07 µM).

Consider `Cc1nc(SCC2=C(C(=O)O)N3C(=O)[C@@H](NC(=O)/C(=N\OCc4cc(=O)c(O)cn4O)c4csc(N)n4)[C@H]3CS2)sc1C(=O)O`, for which the result in assay [14] was Active.

As to `CC(C)C/C=C\C=C/C(=O)NC(CC(N)=O)C(=O)CC1C(=O)N[C@@H](c2ccc(O)cc2)C(=O)N[C@@H](CCCN)C(=O)N[C@@H]([C@@H](C)O)C(=O)N[C@@H](c2ccc(O)cc2)C(=O)N[C@@H](c2ccc(O)cc2)C(=O)N[C@@H]([C@@H](C)O)C(=O)N[C@@H](Cc2ccccc2)C(=O)N[C@@H](CCCN)C(=O)N[C@@H](c2ccc(O[C@H]3OC(CO)[C@@H](O)[C@@H](O)[C@@H]3O[C@H]3O[C@@H](CO)[C@@H](O)[C@H](O)[C@H]3O)cc2)C(=O)N[C@@H]([C@@H](C)O)C(=O)N[C@@H](c2ccc(O)cc2)C(=O)NCC(=O)N[C@@H](CC(C)C)C(=O)N[C@@H](C)C(=O)N[C@@H](c2ccc(O)c(Cl)c2)C(=O)OC1C(N)=O` (some centres not stated) ([Hpg][Orn]T[Hpg][Hpg]TF[Orn][X1]T[Hpg]GLA[Hpg(3-Cl)]; linker N-C via X2), the MIC90 in assay [15] was 0.5 µg/mL (≈ 0.196 µM); in assay [16], no more than 0.25 µg/mL; in assay [17], no more than 0.25 µg/mL; in assay [18], no more than 0.25 µg/mL.

In the case of `CC(=O)NC[C@H]1CN(c2ccc(N3CCOCC3)c(F)c2)C(=O)O1` [LINEZOLID], the MIC90 came to 4 µg/mL (≈ 11.9 µM) in assay [19]; 0.5 µg/mL (≈ 1.48 µM) in [20]; 4 µg/mL (≈ 11.9 µM) in assay [21]; 16 µg/mL (≈ 47.4 µM) in assay [22]; 4 µg/mL (≈ 11.9 µM) in assay [23]; 2 µg/mL (≈ 5.93 µM) in [24]. Also, the MIC90 in [25] amounted to 2 µg/mL (≈ 5.93 µM); in [3], 4 µg/mL (≈ 11.9 µM); in assay [26], 4 µg/mL (≈ 11.9 µM); in assay [4], 2 µg/mL (≈ 5.93 µM); in assay [5], 1 µg/mL (≈ 2.96 µM).

With `C[C@@H]1[C@H](NC(=O)/C(=N\OCC(=O)NNC(=O)c2nc3cc(O)c(O)cc3nc2C(=O)O)c2csc(N)n2)C(=O)N1S(=O)(=O)O`, in [14], the result was Active.

Take `CN[C@H](CC(C)C)C(=O)N[C@H]1C(=O)N[C@@H](CC(N)=O)C(=O)N[C@H]2C(=O)N[C@H]3C(=O)N[C@](C)(C(=O)N[C@H](C(=O)O)c4cc(O)cc(O)c4-c4cc3ccc4O)[C@H](C[C@H]3C[C@](C)(N)[C@@H](O)[C@H](C)O3)c3ccc(c(Cl)c3)Oc3cc2cc(c3O[C@@H]2O[C@H](CO)[C@@H](O)[C@H](O)[C@H]2O[C@@H]2C[C@](C)(NCc3ccc(-c4ccc(Cl)cc4)cc3)[C@@H](O)[C@H](C)O2)Oc2ccc(cc2Cl)[C@H]1O`: the MIC in assay [1] was 0.03 µg/mL (≈ 0.0166 µM); in assay [2], 0.03 µg/mL (≈ 0.0166 µM); in assay [3] it was no more than 0.5 µg/mL; in [4], less than 0.06 µg/mL; in [5], less than 0.008 µg/mL; in [6], 0.016 µg/mL (≈ 0.00886 µM).
